Measurements from publication PMC11742793 (BMC Chemistry, 2025).

Target: P. falciparum lactate dehydrogenase (PfLDH) (Plasmodium falciparum, UniProt Q76NM3)
Assay: microscale thermophoresis
Type: binding

Sequence of P. falciparum lactate dehydrogenase (PfLDH) (Q76NM3 1-316): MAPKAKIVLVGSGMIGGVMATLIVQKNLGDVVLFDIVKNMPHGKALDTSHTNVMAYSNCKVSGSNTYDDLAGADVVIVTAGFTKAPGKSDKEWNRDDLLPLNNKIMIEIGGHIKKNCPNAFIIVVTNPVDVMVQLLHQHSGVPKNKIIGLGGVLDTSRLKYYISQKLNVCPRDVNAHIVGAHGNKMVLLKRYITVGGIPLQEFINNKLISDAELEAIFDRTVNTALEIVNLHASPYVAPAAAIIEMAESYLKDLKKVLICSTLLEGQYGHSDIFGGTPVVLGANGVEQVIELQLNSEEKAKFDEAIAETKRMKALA

## C=C(C)[C@@H]1CC[C@]2(C(=O)O)CC[C@]3(C)[C@H](CC[C@@H]4[C@@]5(C)CC[C@H](O)C(C)(C)[C@@H]5CC[C@]43C)[C@@H]12 [BA, betulinic acid]
  Kd: 0.104 µM
